Data from article PMC3176174 (OncoTargets and therapy, 2011).

How the values were obtained:
Assay in all cases: cells
Type in all cases: cell-based, human
SEM cell line = system: SEM cell line
B1 cell line = system: B1 cell line
KOPN8 cell line = system: KOPN8 cell line
MOLT-3 cell line = system: MOLT-3 cell line
TIB-202 cell line = system: TIB-202 cell line

Compound	IC50 (SEM cell line; Homo sapiens, 96 h) [µM]	IC50 (B1 cell line; Homo sapiens, 96 h) [µM]	IC50 (KOPN8 cell line; Homo sapiens, KOPN-8, 96 h) [µM]	IC50 (MOLT-3 cell line; Homo sapiens, MOLT-3, 96 h) [µM]	IC50 (TIB-202 cell line; Homo sapiens, 96 h) [µM]	IC50 (SEM cell line; Table S1, SEM, 96 hours) [µM]	IC50 (B1 cell line; Table S1, B1, 96 hours) [µM]	IC50 (KOPN8 cell line; Table S1, KOPN8, 96 hours) [µM]	IC50 (MOLT-3 cell line; Table S1, MOLT-3, 96 hours) [µM]	IC50 (TIB-202 cell line; Table S1, TIB-202, 96 hours) [µM]
O=NN(CCCl)C(=O)NC1CCCCC1 [Lomustine]	9.35	8.32	> 5	> 10	> 5					
Oc1ncnc2[nH]ncc12 [Allopurinol]	> 10	> 10	> 5	> 10	> 5					
COc1nc(N)nc2c1ncn2[C@@H]1O[C@H](CO)[C@@H](O)[C@@H]1O [Nelarabine]	> 10	> 10	> 10	1.23	> 10					
CC(C)Cn1cnc2c(N)nc3ccccc3c21 [Imiquimod]	> 10	> 10	2.9	> 10	> 10					
CS(=O)(=O)OCCCCOS(C)(=O)=O [Busulfan]	> 10	> 10	> 5	6.36	> 5					
CC1=C(/C=C/C(C)=C/C=C/C(C)=C/C(=O)O)C(C)(C)CCC1 [Tretinoin]	> 10	> 10	> 5	> 10	> 5					
OC[C@H]1O[C@@H](n2cnc3c2NC=NC[C@H]3O)C[C@@H]1O [Pentostatin]	> 10	> 10	> 5	> 10	> 5					
Clc1ccc(C(c2ccccc2Cl)C(Cl)Cl)cc1 (stereo not shown) [Mitotane]	> 10	> 10	> 5	> 10	> 5					
O=P1(N(CCCl)CCCl)NCCCO1 (stereo not shown) [Cyclophosphamide]	> 10	> 10	> 5	> 10	> 5					
Nc1nc2nc[nH]c2c(=S)[nH]1 [Thioguanine]	0.938	8.77	4.5	7.05	5.2					
N.N.[Cl][Pt][Cl] [Cisplatin]						> 10	> 10	> 5	> 10	> 5
CN(N=O)C(=O)N[C@@H](C=O)[C@@H](O)[C@H](O)[C@H](O)CO [Streptozocin]	> 10	> 10	> 5	> 10	> 5					
O=C(CCBr)N1CCN(C(=O)CCBr)CC1 [Pipobroman]	4.32	2.63	0.389	6.35	4.34					
O=C(c1ccc(OCCN2CCCCC2)cc1)c1c(-c2ccc(O)cc2)sc2cc(O)ccc12 [Raloxifene]	4.44	> 10	8.3	> 10	> 10					
CO[C@H]1C[C@@H]2CC[C@@H](C)[C@@](O)(O2)C(=O)C(=O)N2CCCC[C@H]2C(=O)O[C@H]([C@H](C)C[C@@H]2CC[C@@H](O)[C@H](OC)C2)CC(=O)[C@H](C)/C=C(\C)[C@@H](O)[C@@H](OC)C(=O)[C@H](C)C[C@H](C)/C=C/C=C/C=C/1C [Rapamycin]	< 0.01	0.00804	< 0.01	< 0.01	7.05					
C[C@@H](CN1CC(=O)NC(=O)C1)N1CC(=O)NC(=O)C1 [Dexrazoxone]	> 10	> 10	> 5	> 10	> 5					
Carboplatin						> 10	7.73	5.14	6.97	7.64
O=c1[nH]c(=O)n([C@H]2C[C@H](O)[C@@H](CO)O2)cc1F [Floxuridine]	> 10	8.48	> 5	> 10	> 5					
Cc1nc(Nc2ncc(C(=O)Nc3c(C)cccc3Cl)s2)cc(N2CCN(CCO)CC2)n1 [Dasatinib]	4.05	< 1e-06	0.00748	> 10	< 1e-06					
O=P1(NCCCl)OCCCN1CCCl (stereo not shown) [Ifosfamide]	> 10	> 10	> 5	> 10	> 5					
